The source of these data is patent publication US4997652A, “Biodegradable ocular implants” (priority 1989, dated 1991).

Data set [1] has as its system eye. The data set is described as follows: Clinical observation of eye after PC injection of doxorubicin. In kind it is in vivo, rabbits. As to conditions: free drug. As to the method:
2. 50 μg/0.10 ml of doxorubicin was injected into one eye of two animals for clinical observation for one week. Saline control was injected into the contralateral eye.

For data set [2], the system named is eye. Description: Ocular toxicity observation after AC injection of unencapsulated doxorubicin. In kind it is in vivo, New Zealand white rabbits. As for the experimental part:
2. 50 μg/0.10 ml doxorubicin was injected into the […] in each of two rabbits. The contralateral eye was given 0.10 ml of normal saline.

The nature of another data set: in vivo. On the set-up: species or system New Zealand white rabbits. Conditions: rabbit. As to the method: 1. 50 μg/0.1 ml doxorubicin was injected into the AC of 10 New Zealand white rabbits. The AC was tapped for doxorubicin assay.
A short description of data set [3]: Residual vitreous doxorubicin after injection of doxorubicin into the PC. The data set is classed as in vivo, rabbits. As for the experimental part: 1. 50 μg/0.1 ml doxorubicin was injected into the posterior chamber (PC) of each of 10 rabbits. The contralateral eye served as control.
Where [4] appears, read: 50 ug into PC right eye, free drug, 0 hours.

“And” between values parts separate entries of the source, which are not always exact repeats. Identical values can stand only once. Like-named read-outs stand apart in the source and are kept apart here.

In the case of `COc1cccc2c1C(=O)c1c(O)c3c(c(O)c1C2=O)C[C@@](O)(C(=O)CO)C[C@@H]3O[C@H]1C[C@H](N)[C@H](O)[C@H](C)O1` [doxorubicin], the “clinical tolerance of PC injection” value in the data set with eye [1] is “well tolerated”. The evidence of toxicity result in the data set on eye [1] is given as “No evidence of toxicity”. For the same molecule, in the data set on eye [2], the ocular toxicity result was “causes ocular inflammation and corneal edema”. Moreover, in the data set with eye [2], the “time of ocular inflammation and corneal edema after AC injection” value fell in the range of 2 to 3 days. The half-life was ~1 h in “in vivo” and ~3 h in data set [3] (rabbit, vitreous, 0.05 mg, PC injection, 50 ug, read-out: halflife of free doxorubicin (converted)). Moreover, the “Residual vitreous doxorubicin, Mean ± SD” value in data set [3] (setting [4]) stood at 8.55 ± 0.24 µg/mL. Further, the “Residual vitreous doxorubicin, single sample” value in data set [3] (setting [4]) was 8.40 µg/mL and 8.74 µg/mL; in data set [3] (50 ug into PC right eye, free drug, 2 hours, 120 min) it was 4.65 µg/mL; in data set [3] (50 ug into PC right eye, free drug, 4 hours, 240 min), 3.4 µg/mL; in data set [3] (50 ug into PC right eye, free drug, 8 hours, 480 min), 0.75 µg/mL; in data set [3] (50 ug into PC right eye, free drug, 16 hours, 960 min), 0.21 µg/mL. Also, the concentration at 2 h is 5590 ± 1340 ng/mL in data set [3] (rabbit, vitreous, 0.05 mg, 50 ug into PC right eye, free drug, 2 hours, read-out: Residual vitreous doxorubicin, Mean ± SD) and 6540 ng/mL in data set [3] (rabbit, vitreous, 0.05 mg, 50 ug into PC right eye, free drug, 2 hours, read-out: Residual vitreous doxorubicin, single sample). Moreover, the concentration at 4 h in data set [3] (rabbit, vitreous, 0.05 mg, 50 ug into PC right eye, free drug, 4 hours, read-out: Residual vitreous doxorubicin, Mean ± SD) is 3850 ± 640 ng/mL; in data set [3] (rabbit, vitreous, 0.05 mg, 50 ug into PC right eye, free drug, 4 hours, read-out: Residual vitreous doxorubicin, single sample), 4300 ng/mL. The concentration at 8 h in data set [3] (rabbit, vitreous, 0.05 mg, 50 ug into PC right eye, free drug, 8 hours, read-out: Residual vitreous doxorubicin, Mean ± SD) was found to be 860 ± 160 ng/mL; in data set [3] (rabbit, vitreous, 0.05 mg, 50 ug into PC right eye, free drug, 8 hours, read-out: Residual vitreous doxorubicin, single sample) it was 980 ng/mL. The concentration at 16 h turned out to be 240 ± 40 ng/mL in data set [3] (rabbit, vitreous, 0.05 mg, 50 ug into PC right eye, free drug, 16 hours, read-out: Residual vitreous doxorubicin, Mean ± SD) and 260 ng/mL in data set [3] (rabbit, vitreous, 0.05 mg, 50 ug into PC right eye, free drug, 16 hours, read-out: Residual vitreous doxorubicin, single sample).
